Data as given in patent publication US20230285497A1, “ATOPIC […] WITH KAPPA OPIOID RECEPTOR AGONIST AS ADJUNCT TO TOPICAL CORTICOSTEROID” (Cara Therapeutics, Inc., priority 2022, published 2023).

Assays:
Solubility in water = format: physicochemical; details: acetate salt
[1] = system: subjects with atopic dermatitis; test: Phase 2 study, tolerability and Treatment Emergent Adverse Events; format: in vivo, human
Experimental: Oral Difelikefalin 0.25 mg, 0.5 mg, 1.0 mg, or placebo was administered twice daily (BID) in subjects with atopic dermatitis (baseline validated Investigator's Global Assessment scale for AD: vIGA-ADTM≥2 and body surface area [BSA]≤30%) and moderate-to-severe AD-related pruritus (mean baseline Itch Numerical Rating Scale [I-NRS, 0-10 scale] score ≥5.0). The primary and key secondary endpoints were the change from baseline in the weekly mean of the daily I-NRS score at Week 12, and the proportion of subjects achieving at least a 4-point improvement from baseline in I-NRS score at Week 12, respectively.
There were no deaths in the study. Abdominal pain was the most common TEAE leading to study drug discontinuation in the 1.0 mg dose group (6.5%), compared to placebo (1.6%), 0.25 mg (0%) and 0.5 mg (0%) dose groups.

| Structure (SMILES) | solubility in water (Solubility in water) | abdominal pain TEAE leading to study drug discontinuation ([1]; 0.25 mg dose group) | abdominal pain TEAE leading to study drug discontinuation ([1]; 0.5 mg dose group) | abdominal pain TEAE leading to study drug discontinuation ([1]; 1.0 mg dose group) | deaths in the study ([1]; in vivo) | severity of the majority of reported TEAEs ([1]; in vivo) | overall tolerability ([1]; oral, twice daily, 12-week Treatment Period) | most common Treatment Emergent Adverse Events (TEAEs) ([1]; ≥5% in any dose group) |
| --- | --- | --- | --- | --- | --- | --- | --- | --- |
| CC(=O)O.CC(C)C[C@@H](NC(=O)[C@@H](Cc1ccccc1)NC(=O)[C@H](N)Cc1ccccc1)C(=O)N[C@H](CCCCN)C(=O)N1CCC(N)(C(=O)O)CC1 [Difelikefalin acetate, 4-amino-1-(D-phenylalanyl-D-phenylalanyl-D-leucyl-D-lysyl)piperidine-4-carboxylic acid, acetate salt] | soluble in water | – | – | – | – | – | – | – |
| CC(C)C[C@@H](NC(=O)[C@@H](Cc1ccccc1)NC(=O)[C@H](N)Cc1ccccc1)C(=O)N[C@H](CCCCN)C(=O)N1CCC(N)(C(=O)O)CC1 [Difelikefalin] | – | 0% | 0% | 6.5% | no deaths | mild or moderate | generally well-tolerated | abdominal pain, nausea, dry mouth, headache, dizziness and hypertension |
